In patent publication US9149472B2, “Controlled release compositions for treatment of cognitive, emotional and mental ailments and disorders” (priority 2004, dated 2015):

Columns and labels:
[1] = tested on: mild permanent cognitive and short term memory loss; test: Case study Patient 1: mild permanent cognitive and short term memory loss after mold exposure; type: in vivo, human
Protocol: A case study of a patient having a long history of allergies was performed.
A typical dosage of the Singulair® is about 10 mg.
A 10 mg tablet can be taken orally upon awakening. […] In a typical implementation, the patient can take another 10 mg dose in about two hours after the initial dose. […] Similar booster dosages can be taken at 3-4 hour intervals throughout the day. […] The Singulair® product typically recommends 10 mg per day.
In another embodiment, a zafirlukast product such as Accolate® and Vanticon® can be implemented. In one implementation, a 20 mg oral dose can be taken upon awakening followed by a 10 mg dose after 2 hours and a 10 mg repeated dose in 4 hours and a final dose of 20 mg another 4 hours later. […] The Accolate® recommended dosage is 20 mg in the morning and evening.

[2] = tested on: forgetfulness and problems with word recall; test: Case study Patient 5: person with forgetfulness and word recall problems
[3] = tested on: decreased concentration and focus, memory recall and forgetfulness issues; test: Case study Patient 4: person with decreased concentration, focus and memory recall, plus depression and anxiety; type: in vivo, human; details: 10 mg in the morning along with an antidepressant, additional 10 mg about every 2 hours during waking hours
Text: A person with symptoms of decreased concentration and focus along with memory recall and forgetfulness issues. The patient was also diagnosed with depression and anxiety.

[4] = tested on: mild symptoms of forgetfulness; test: Case study Patient 2: person with mild symptoms of forgetfulness
[5] = tested on: memory loss, cognitive, emotional ailments
Protocol: In most cases, treatment of these ailments requires multiple dosages of 5 mg to 20 mg over the course of the day.

[6] = tested on: symptoms of cognitive ailments; details: Patient 3
[7] = tested on: symptoms of cognitive ailments; test: Case study Patient 6: person with cognitive ailments, single morning dose; type: in vivo, human

## COc1cc(C(=O)NS(=O)(=O)c2ccccc2C)ccc1Cc1cn(C)c2ccc(NC(=O)OC3CCCC3)cc12 [Accolate®, zafirlukast]
[1]; Patient 1, oral 20 mg upon awakening, 10 mg after 2 hours, 10 mg after 4 hours, 20 mg 4 hours later, highest daily dosage 80 mg
  focus and disposition: heightened focus but results in a less “wired” disposition

## CC(C)(O)c1ccccc1CC[C@@H](SCC1(CC(=O)[O-])CC1)c1cccc(/C=C/c2ccc3ccc(Cl)cc3n2)c1.[Na+] [montelukast sodium]
[2]
  other side effects: No other side effects noted
  time to improvement after initiation of the protocol: ≤ 24 h
[2]; 10 mg in the morning, additional 10 mg about every 2 hours during waking hours, five days
  memory and recall issues: significant improvement in memory and recall issues
[2]; 6 doses of 10 mg daily
  sleep (side effect) at 6 doses daily: difficulty sleeping
[2]; discontinued after five days
  time to recurrence of symptoms after discontinuation: 24 to 48 h
[2]; schedule reduced to five doses daily
  sleep (side effect) at five doses daily: the problem was resolved
[3]
  symptoms: significant improvement in symptoms
[4]
  side effects: No side effects reported
[4]; 20 mg in the morning, additional 10-20 mg about every 2 hours during waking hours
  time to improvement in symptoms after onset of medication use: ≤ 24 h
[4]; after the five-day course was stopped
  symptoms after stopping second course: the symptoms returned again
[4]; stopped after over a week
  time to recurrence of symptoms after discontinuation: ≤ 24 h
[4]; two weeks later, same regimen for five days
  symptoms during second course: marked improvement in symptoms
[5]; immediate release dosages larger than 30 mg
  mood with large immediate release dosages: improved mood
[5]; in most cases multiple dosages of 5 mg to 20 mg over the day
  effect on ailments (overall finding): alleviate and treat memory loss, forgetfulness, apathy, emotional and cognitive ailments, and depression
[1]; Patient 1, 20-30 mg upon waking
  time to relief / marked improvement after the initial higher dosage: 30 to 45 min
[1]; Patient 1, about 20-30 mg
  apathy: marked decrease in apathy
  sense of humor: increase in sense of humor
[1]; Patient 1, about 20-30 mg (2-3 times the typical dosage)
  cognitive, mental and emotional improvement: marked cognitive, mental and emotional improvement
[1]; Patient 1, additional 10 mg dose every four hours
  effect of additional doses on relief: continues the relief
[1]; Patient 1, after the dosage is ceased
  time to return of symptoms after ceasing the dosage: ≤ 24 h
[1]; Patient 1, as prescribed for allergies, typical dosage about 10 mg
  cognitive effect when taking the medication: cognitive improvement
[1]; booster dosages of 5 mg about every 2 hours, maximum 40 mg in one day
  mental state under mega-dosing: very talkative mental states and highly sensitive mental alertness
[6]
  side effects: No side effects noted
[6]; 10 mg in the morning, additional 10 mg about every 2 hours during waking hours
  symptoms while on medication: significant improvement in symptoms
[7]; 50 mg once upon rising in the morning
  mental clarity and mood: improved mental clarity in the morning and better mood throughout the day
[7]; 80 mg once upon rising in the morning
  mental clarity and mood: improved mental clarity in the morning and better mood throughout the day
